Entries after “also recorded” stand apart in the source; their conditions may differ.
Legend:
FADU = test: MTS proliferation assay, head/neck FADU; type: cell-based; settings: Homo sapiens
Procedure: (§1) MTS Proliferation Assay (Promega)
(§2) Day 1: Cells were plated in appropriate growth medium at 5×10^3 per well in 100 ul in 96 well tissue culture plates, Falcon, one for each drug to be tested. Col 1 was blank; it contained no cells, just medium. The plates were incubated overnight at 37° C., 5% CO2 to allow attachment.
(§3) Day 2: Added 120 ul growth medium in wells of 96-well “dilution plates” (one for each drug) and let sit in 37° C. incubator for about 1 hr.
(§4) Thawed DMSO drug stocks (usually at 10 mM). Each drug was diluted 6 ul into a tube with 3 ml growth medium, to 20 μM.
(§5) Aspirated medium from col 12 of a dilution plate; added 200-300 ul of 20 uM drug to wells of col 12. Made serial dilution down this 96-well plate: for a […] dilution pattern, moved 60 ul from col 12 to col 11, mixed 4-5 times (using 8 place multi-pipettor), moved 60 ul to col 10, etc. stopping at col 3.
(§6) Moved 100 ul of medium+drug from dilution plate to a cell plate, i.e. col 1 from drug plate (blank=no cells) to col 1 of cell plate, etc. up to col 12. Col 2 contained cells with no drug. […]
(§7) Day 4 or 5: Terminated the assay 48 to 72 hrs after drug addition. […] When the color turned dark in control wells (col 2), and was still light in col 12, the absorbance at 490 nm was read on a plate reader; the results were used to calculate IC50.

MDA435s = test: MTS proliferation assay, breast MDA435s; type: cell-based
Procedure: as §1, §2, §3, §4, §5, §6, §7

MESSA/Dox (MDR+) = test: MTS proliferation assay, uterine MESSA/Dox (MDR+); type: cell-based; settings: Homo sapiens, MES-SA
Procedure: as §1, §2, §3, §4, §5, §6, §7

[1] = S-(1) pharmacokinetics in mouse, plasma and brain levels after single IV dose; type: in vivo, CD-1 mice; settings: single IV 20 mg/kg; for AUC(0-inf) / AUC(0-t) / Cmax / MRT: CD-1, mouse
Procedure: S-(1) Pharmacokinetic Data in Mouse Model:
The formulated drug was administered as a single IV bolus via tail vein injection.
Sample Collection timing: Terminal blood (plasma) and brain specimens were collected at 9 times post-dose, with 4 mice per sample time. Sample collection times: 5, 15 min., 2, 8, 24, 32, 48, 72 and 96 hr post-dose (4 mice per sample time).
Blood collection: A terminal blood sample was collected from each mouse via cardiac puncture. The whole blood was collected on wet ice, spun down immediately (at 4° C.), and plasma stored frozen at −20° C. until analysis. The anticoagulant used was K2EDTA. Brain Sample Collection: Whole brains were removed by dissection. Brains were collected on wet ice, weighed, and stored at −20° C.

[2] = Phase 1 Study S-(1)-01 plasma pharmacokinetics (weekly x3, 28-day cycle); type: in vivo, human; settings: for half-life / AUC(0-t): human, plasma; for AUC(0-t): read-out: AUC0-24
Text: (§8) Both trials have enrolled patients with advanced solid tumors, non-Hodgkin's lymphoma or Hodgkin's lymphoma that have recurred or progressed following at least standard therapy; patients with malignancies for which there is no standard therapy; patients who are not candidates for standard therapy; or patients who have chosen not to pursue standard therapy. […] Study S-(1)-01 is currently being conducted in the United States. […] Study S-(1)-02 is currently being conducted in the United States and in Israel.
(§9) Plasma pharmacokinetics of S-(1) were assessed following the first dose of S-(1) in both studies. Plasma samples were analyzed for S-(1) using a validated LC/MS-MS method.

[3] = Phase 1 Study S-(1)-02 plasma pharmacokinetics (every 21 days); type: in vivo, human; settings: for half-life / AUC(0-t): human, plasma; for AUC(0-t): read-out: AUC0-24
Text: as §8, §9

[4] = tested on: patients with advanced neoplasms; test: Phase 1 Study S-(1)-02 safety, tolerability and anti-neoplastic activity; type: in vivo, human
Text: as §8
Treatment cohorts were expanded to 6 pts in the face of dose-limiting toxicity (DLT); pts could remain on study until the development of progressive disease or an intolerable adverse event. DLT was defined as Gr 4 heme toxicity lasting 7 days; febrile neutropenia, Gr 3 thrombocytopenia with bleeding, Gr 3 elevation of transaminases lasting 7 days or any other Gr 3/4 toxicity other than nausea or vomiting.

[5] = Crossing of rat blood-brain barrier (FIG. 1); type: in vivo
[6] = 14 mg/m^2 i.v., first dose, 50:50 Cremophor EL-P/ethanol formulation
[7] = 28 mg/m^2 i.v., first dose, 50:50 Cremophor EL-P/ethanol formulation
[8] = 56 mg/m^2 i.v., first dose, 50:50 Cremophor EL-P/ethanol formulation
[9] = 85 mg/m^2 i.v., first dose, 50:50 Cremophor EL-P/ethanol formulation
[10] = 127.5 mg/m^2 i.v., first dose, 50:50 Cremophor EL-P/ethanol formulation
[11] = 56 mg/m^2 i.v., first dose, 15:85 Cremophor EL-P/ethanol formulation
[12] = 84 mg/m^2 i.v., first dose, 15:85 Cremophor EL-P/ethanol formulation
[13] = 126 mg/m^2 i.v., first dose, 15:85 Cremophor EL-P/ethanol formulation
[14] = 185 mg/m^2 i.v., first dose, 15:85 Cremophor EL-P/ethanol formulation

C=C[C@H]1O[C@H]2C[C@H]3OC[C@@]3(OC(C)=O)[C@H]3[C@H](OC(=O)c4ccccc4)[C@]4(C(C)(C)O)CC(OC(=O)[C@H](O)C(CC(C)C)NC(=O)OC(C)(C)C)C(C)=C4[C@H](OC(C)=O)[C@H](O1)[C@]23C (stereo partly drawn) [S-(1)]
IC50 (FADU): 21 nM | IC50 (MDA435s): 10 nM | IC50 (MESSA/Dox (MDR+)): 44.8 nM | AUC(0-inf) ([1]; Brain): 88700 ng·h/mL | AUC(0-t) ([1]; Brain): 65000 ng·h/mL | Cmax ([1]; Brain): 3730 ng/mL | MRT ([1]; Brain): 42.5 h | AUC(0-inf) ([1]; Plasma): 17000 ng·h/mL | AUC(0-t) ([1]; Plasma): 16900 ng·h/mL | Cmax ([1]; Plasma): 1550 ng/mL | MRT ([1]; Plasma): 17.6 h | blood-brain barrier passage ([1]; mouse model): not impeded by the blood-brain barrier | Cl [2, 6]: 35.5 ± 29.7 L/hr/m^2 | Vss [2, 6]: 23.2 ± 74.5 L/m^2 | Cl [2, 7]: 43.5 ± 14.5 L/hr/m^2 | Vss [2, 7]: 309 ± 161 L/m^2 | Cl [2, 8]: 28.6 ± 13.2 L/hr/m^2 | Vss [2, 8]: 216 ± 70 L/m^2 | Cl [2, 9]: 16.6 ± 9.26 L/hr/m^2 | Vss [2, 9]: 142 ± 75.6 L/m^2 | Cl [2, 10]: 30.2±11.9 L/hr/m^2 | Vss [2, 10]: 239 ± 116 L/m^2 | t1/2 [2, 10]: 6.59 ± 2.60 h | half-life ([2]; intravenous, S-(1)-01 study, all dose groups, read-out: Plasma t1/2 values, range over dose groups): 3.45 to 8.4 h | AUC(0-t) ([2]; iv, 14 mg/m2, 14 mg/m^2 i.v., first dose, 50:50 Cremophor EL-P/ethanol formulation): 457 ± 297 ng·h/mL | half-life ([2]; iv, 14 mg/m2, 14 mg/m^2 i.v., first dose, 50:50 Cremophor EL-P/ethanol formulation, read-out: t1/2 (converted)): 8.4 ± 11.5 h | AUC(0-t) ([2]; iv, 28 mg/m2, 28 mg/m^2 i.v., first dose, 50:50 Cremophor EL-P/ethanol formulation): 682 ± 322 ng·h/mL | half-life ([2]; iv, 28 mg/m2, 28 mg/m^2 i.v., first dose, 50:50 Cremophor EL-P/ethanol formulation, read-out: t1/2 (converted)): 3.45 ± 1.09 h | AUC(0-t) ([2]; iv, 56 mg/m2, 56 mg/m^2 i.v., first dose, 50:50 Cremophor EL-P/ethanol formulation): 2070 ± 888 ng·h/mL | half-life ([2]; iv, 56 mg/m2, 56 mg/m^2 i.v., first dose, 50:50 Cremophor EL-P/ethanol formulation, read-out: t1/2 (converted)): 5.66 ± 3.63 h | AUC(0-t) ([2]; iv, 85 mg/m2, 85 mg/m^2 i.v., first dose, 50:50 Cremophor EL-P/ethanol formulation): 5970 ± 3900 ng·h/mL | half-life ([2]; iv, 85 mg/m2, 85 mg/m^2 i.v., first dose, 50:50 Cremophor EL-P/ethanol formulation, read-out: t1/2 (converted)): 5.52 ± 5.26 h | AUC(0-t) ([2]; iv, 127.5 mg/m2, 127.5 mg/m^2 i.v., first dose, 50:50 Cremophor EL-P/ethanol formulation): 4460 ± 2140 ng·h/mL | half-life ([2]; iv, 127.5 mg/m2, 127.5 mg/m^2 i.v., first dose, 50:50 Cremophor EL-P/ethanol formulation, read-out: t1/2 (converted)): 8.6 ± 1.3 h | Cl [3, 11]: 18.9 ± 9.53 L/hr/m^2 | Vss [3, 11]: 232 ± 93.6 L/m^2 | Cl [3, 12]: 15.4 L/hr/m^2 | Vss [3, 12]: 300 L/m^2 | Cl [3, 13]: 22.1 ± 11.2 L/hr/m^2 | Vss [3, 13]: 166 ± 105 L/m^2 | t1/2 [3, 13]: 6.27 ± 3.64 h | Cl [3, 14]: 24.7 ± 12.2 L/hr/m^2 | Vss [3, 14]: 215 ± 116 L/m^2 | half-life ([3]; intravenous, S-(1)-02 study, all dose groups, read-out: Plasma t1/2 values, range over dose groups): 3.43 to 8.96 h | AUC(0-t) ([3]; iv, 56 mg/m2, 56 mg/m^2 i.v., first dose, 15:85 Cremophor EL-P/ethanol formulation): 2530 ± 847 ng·h/mL | half-life ([3]; iv, 56 mg/m2, 56 mg/m^2 i.v., first dose, 15:85 Cremophor EL-P/ethanol formulation, read-out: t1/2 (converted)): 8.96 ± 7.09 h | AUC(0-t) ([3]; iv, 84 mg/m2, 84 mg/m^2 i.v., first dose, 15:85 Cremophor EL-P/ethanol formulation): 3710 ng·h/mL | AUC(0-t) ([3]; iv, 126 mg/m2, 126 mg/m^2 i.v., first dose, 15:85 Cremophor EL-P/ethanol formulation): 6110 ± 3030 ng·h/mL | half-life ([3]; iv, 126 mg/m2, 126 mg/m^2 i.v., first dose, 15:85 Cremophor EL-P/ethanol formulation, read-out: t1/2 (converted)): 10.6 ± 7.1 h | AUC(0-t) ([3]; iv, 185 mg/m2, 185 mg/m^2 i.v., first dose, 15:85 Cremophor EL-P/ethanol formulation): 7260 ± 2620 ng·h/mL | half-life ([3]; iv, 185 mg/m2, 185 mg/m^2 i.v., first dose, 15:85 Cremophor EL-P/ethanol formulation, read-out: t1/2 (converted)): 3.43 ± 7.31 h | Dose limiting toxicity ([4]; 160 mg/m^2 every 21 days): no DLT was observed | Dose limiting toxicity ([4]; 185 mg/m^2 every 21 days): Grade 3 sensory neuropathy; also recorded: Gr 3 peripheral sensory neuropathy | anti-neoplastic activity ([4]; 1 pt with pancreatic cancer): confirmed response | Drug related adverse events ([4]; 56-185 mg/m^2 every 21 days): mucositis, vomiting, diarrhea, neutropenia, thrombocytopenia, myalgias and peripheral neuropathy | dose that can be safely administered ([4]; every 21 days, heavily pre-treated patients): 160 mg/m^2 | crossing of blood-brain barrier [5]: crosses rat blood-brain barrier

Source: patent US10745408B2, “Biologically active taxane analogs and methods of treatment by oral administration” (Tapestry Pharmaceuticals, Inc., priority 2007, dated 2020)
